Reference: US10357479B2, “Angiotensin II receptor antagonist for the prevention or treatment of systemic diseases in cats” (priority 2006, dated 2019)
“And” between values parts separate entries of the source, which are not always exact repeats. Equal values may be shown once. “Also recorded” adds a separate entry of the source.

Columns and labels:
[1] = Pharmacokinetics and absolute bioavailability in plasma after single oral or intravenous administration (Example 1); conditions: for AUC(0-inf) / half-life / t max / V/f or V / t ½ / AUC 0 → ∞: single dose 1 mg/kg, mean; for half-life: t ½
Experimental: Four clinically healthy male and female domestic short hair cats (HsdCpb: CADS) with a body weight range of 2.6-4.2 kg were used in this study. The animals were randomly allocated to 2 groups, 2 animals per group.
Blood samples were drawn at 0 h (i.e. prior to treatment), 5 (after i. v. injection only), 15, 30 and 60 min as well as 2, 4, 8, 24, 72 and 96 h after each treatment. Clinical observations were also conducted at these time points. Plasma samples were sent to the analytical laboratory and analysed there using a validated method. The plasma levels measured in each animal were subjected to various pharmacokinetic calculations.

[2] = human patients, 160 mg daily; cited from earlier work
[3] = Safety after repeated oral administration over four weeks (Example 3); type: in vivo, cats
Experimental: The animals were allocated to 3 groups, 4 animals per group. […] The bottles with the test/control article looked identical with the exception of the animal no. in order to achieve blinding.
Blood samples for haematology and clinical chemistry were collected from the animals on days-1 (i.e. prior to the first treatment) and again on days 3, 7, 14, 28. Body weights were measured weekly and electrocardiography recording were made on days-1, 14, 21 and 28. A detailed physical examination including determination of rectal temperature and respiratory rate was carried out on days-1, 7, 14, 22 and 28. Systolic blood pressure (once daily) and heart rate (twice daily) were determined five days per week beginning prior to treatment until necropsy. The palatability of the administered article was assessed at various time points throughout treatment using a scoring system. On day 28 of the study, all animals were subjected to necropsy and stomach and kidneys were examined histopathologically. Relevant parameters were analysed using appropriate statistical procedures.

[4] = system: angiotensin II receptor 1 (AT-1); assay: Escalating intravenous dose: blood pressure response of anaesthetised cats after angiotensin II (Example 2); type: in vivo
Experimental: Four clinically healthy adult male and female domestic short hair cats (HsdCpb: CADS) with a body weight range of 2.5-3.5 kg were used in this study. The animals were anaesthetised with sodium pentobarbital and anaesthesia was sustained by continuous infusion of diluted anaesthetic. A catheter was inserted into a carotid artery and connected to a pressure transducer for registration of the arterial pressure. […] The systolic and diastolic blood pressure [mmHg] in the carotid artery were recorded and analysed at discrete intervals as described below.
At first, the diastolic blood pressure was registered 6 times every 5 minutes. The mean of these 6 measurements were set as the baseline blood pressure. Then two bolus injections of A2 were administered at a dose of 0.1 μg/kg in an interval of 10 min. The maximum increase in diastolic blood pressure obtained from the second A2-bolus relative to the baseline blood pressure was taken as the control angiotensin II-blood pressure response (i.e. reference value).
Thirty minutes later the diastolic blood pressure was recorded, immediately followed by bolus injection of A2 at a dose of 0.1 μg/kg and the maximum increase in diastolic blood pressure was obtained. This procedure was to be repeated accordingly until the intended endpoint of the experiment (i.e. an A2-pressure response ≤10% of the control A2-pressure response corresponding to ≥90% inhibition) was reached. […] At the end of the experiment, the anaesthetised animals were euthanized with an overdose of sodium pentobarbital.

[5] = system: angiotensin II receptor 1 (AT-1); assay: Angiotensin II induced increase in diastolic blood pressure in laboratory cats after oral dosing; type: in vivo; conditions: approximately 24 hours after the last oral dosing, target dose vs Placebo
[6] = both, domestic short hair (HsdCpb: CADS), plasma, po, 1 mg/kg
[7] = oral once daily days 0 to 27, 1 and 3 mg/kg

CCCc1nc2c(C)cc(-c3nc4ccccc4n3C)cc2n1Cc1ccc(-c2ccccc2C(=O)O)cc1 [telmisartan, 4′-[2-n-propyl-4-methyl-6-(1-methylbenzimidazol-2-yl)-benzimidazol-1-ylmethyl]-biphenyl-2-carboxylic acid]
plasma concentrations at 24 h ([1]; 24 h after both routes, orally and intravenously): No quantifiable plasma concentrations | time until which mean plasma concentrations increased ([1]; after oral administration): 15 to 30 min | bioavailability ([1]; both, domestic short hair (HsdCpb: CADS), cat, plasma, po, 1 mg/kg, absolute bioavailability after oral administration, oral 1 mg/kg): 33% | MRT ([1]; both, domestic short hair (HsdCpb: CADS), plasma, iv, 1 mg/kg): 0.789 h | AUC(0-inf) ([1]; both, domestic short hair (HsdCpb: CADS), plasma, iv, 1 mg/kg, i.v., first AUC line (r5)): 385 ng·h/mL | AUC(0-inf) ([1]; both, domestic short hair (HsdCpb: CADS), plasma, iv, 1 mg/kg, i.v., second AUC line (r7)): 376 ng·h/mL | half-life ([1]; both, domestic short hair (HsdCpb: CADS), plasma, iv, 1 mg/kg, i.v.): 2.25 h | CL/F [1, 6]: 172 mL/min/kg | Cmax [1, 6]: 138 ng/mL | MRT [1, 6]: 1.97 h | AUC(0-inf) ([1]; both, domestic short hair (HsdCpb: CADS), plasma, po, 1 mg/kg, oral, first AUC line (r5)): 150 ng·h/mL | AUC(0-inf) ([1]; both, domestic short hair (HsdCpb: CADS), plasma, po, 1 mg/kg, oral, second AUC line (r7)): 139 ng·h/mL | bioavailability ([1]; both, domestic short hair (HsdCpb: CADS), plasma, po, 1 mg/kg, absolute bioavailability after oral administration, oral 1 mg/kg): 33.6% | bioavailability ([1]; both, domestic short hair (HsdCpb: CADS), plasma, po, 1 mg/kg, absolute bioavailability, point estimate, for AUC 0→t, oral vs i.v. 1 mg/kg): 31.6% | bioavailability ([1]; both, domestic short hair (HsdCpb: CADS), plasma, po, 1 mg/kg, absolute bioavailability, point estimate, for AUC 0→∞, oral vs i.v. 1 mg/kg): 33.6% | t max ([1]; both, domestic short hair (HsdCpb: CADS), plasma, po, 1 mg/kg, t max, oral): 0.44 h | half-life ([1]; both, domestic short hair (HsdCpb: CADS), plasma, po, 1 mg/kg, oral): 2.17 h | bioavailability ([1]; domestic short hair (HsdCpb: CADS), plasma, po, 1 mg/kg, bioavailability, individual data, animal no. 101, for AUC 0→∞): 11.6% | bioavailability ([1]; domestic short hair (HsdCpb: CADS), plasma, po, 1 mg/kg, bioavailability, individual data, the other animals, for AUC 0→∞): 38.7 to 58.2% | clinical signs ([1]; entire course of the study, single oral or i.v. 1 mg/kg): No specific clinical signs | V/f or V ([1]; i.v., 1 mg/kg): 8.8 L/kg and 8.856 L/kg | t ½ ([1]; i.v., 1 mg/kg): 2.252 h | AUC 0 → ∞ ([1]; i.v., first AUC line (r5), 1 mg/kg): 384.751 ng·h/mL | tolerability ([1]; in vivo, 1 mg/kg): well tolerated | V/f or V ([1]; oral, 1 mg/kg): 20.4 L/kg and 20.453 L/kg | t max ([1]; oral, 1 mg/kg): 0.438 h | t ½ ([1]; oral, 1 mg/kg): 2.169 h | AUC 0 → ∞ ([1]; oral, first AUC line (r5), 1 mg/kg): 150.426 ng·h/mL | plasma level (Cmax±SD) [2]: about 2800±2400 ng/ml | histopathology of stomach and kidneys ([3]; day 28): no histopathological findings considered to be associated with the treatment | necropsy findings ([3]; day 28): No animal showed any specific finding | systolic blood pressure, changes from baseline vs controls ([3]; groups II (1 mg/kg) and III (3 mg/kg)): did not reveal significant differences | systolic blood pressure vs control group I ([3]; groups II (1 mg/kg) and III (3 mg/kg), single occasions after initiation of treatment): significantly lower | systolic blood pressure, course of the mean values over time ([3]; groups II and III vs group I, from day 20 onwards / towards the end of the study): tendency of a slight reduction | body weights, rectal temperature, respiratory and heart rates [3, 7]: No significant differences | clinical findings [3, 7]: No clinical findings clearly attributable to the treatment | urinalysis [3, 7]: not provide evidence of a treatment effect | physical and ECG examinations ([3]; oral once daily days 0 to 27, 1 and 3 mg/kg, all time points): did not reveal treatment-related findings | haematological and clinical chemistry parameters including differential leukocyte count ([3]; oral once daily days 0 to 27, 1 and 3 mg/kg, vs concurrent controls): No treatment-related differences | effect of further dose escalation ([4]; all 4 animals): did not produce markedly higher effects; also recorded: did not produce an appropriate dose response relationship | maximal inhibition of the blood pressure increase relative to the control angiotensin II-blood pressure response ([4]; animal no. 101, reached at cumulative i.v. dose of 0.05 mg/kg): 50% | inhibition of the angiotensin II diastolic blood pressure response ([4]; animal no. 102, after the 1st i.v. dose of 0.04 mg/kg): 73% | inhibition of the angiotensin II diastolic blood pressure response ([4]; animal no. 151, cumulative i.v. dose of 0.04 mg/kg): 73% | inhibition of the angiotensin II diastolic blood pressure response ([4]; animal no. 152, after the 1st i.v. dose of 0.02 mg/kg): 73% | maximal inhibition of the blood pressure increase relative to the control angiotensin II-blood pressure response ([4]; animal nos. 102, 151, 152, final cumulative i.v. dose 0.34-0.4 mg/kg): 80-95% | inhibition of the angiotensin II diastolic blood pressure response ([4]; cumulative i.v. dose of 0.04 mg/kg, 3 of 4 animals): 73% | inhibition of the blood pressure response ([4]; doses of less than 0.05 mg per kg body weight, majority of the tested cats): about 75% | effect on diastolic blood pressure increase after angiotensin II ([4]; escalating intravenous doses, anaesthetised cats): led to an inhibition of the diastolic blood pressure increase | endpoint of a 90% inhibition of the A2-pressure response ([4]; several consecutive escalating i.v. doses): could not be reached in 3 of 4 animals | diastolic blood pressure responses to increasing intravenous doses of Angiotensin II [5]: significantly reduced
